Assay type in all cases: cell-based
One data set relates to HL-1 cells. Description: Membrane potential and firing of spontaneously beating HL-1 cells, whole-cell current clamp. The note with it: 10 uM. The method, then: All conventional chemicals were purchased from Sigma-Aldrich (Stockholm, Sweden). The DHAA derivatives were diluted in ethanol in a 100 mM stock solution. The stock solutions were stored at −20 t for further use.
The cell culture was done according to a previous study (Claycomb et al., Proceedings of the National Academy of Sciences of the United States of America 1998; 95:2979-2984). In brief, cells were grown on gelating fibronectin coated T75 flasks. They were maintained in Claycomb Medium which was supplemented with 10% fetal bovine serum, 2 mM L-glutamine, 0.1 mM noradrenaline, and 100 U/ml, 100 μg/ml penicillin-streptomycin. Enzymatic dissociation with 0.05% trypsin-EDTA was done after full confluence. Isolated cells were plated on fibronectin-gelatin coated plastic coverslips and used for recording.
Whole-cell current-clamp recordings were done on confluent cells at 35±1° C., using an Axopatch 200B amplifier (Molecular Devices, Sunnyvale, Calif.). Patch pipettes were fabricated from borosilicate capillary glass on a vertical pipette puller and had resistances of 3-5 MO. Data were stored on a computer through Digidata 1440A interface (Molecular Devices), and was analyzed with pCLAMP software (version 10.1, Molecular Devices). The bath solution contained the following (in mM): 140 NaCl, 5.4 KCl, 1 MgCl2, 1.8 CaCl2, 10 HEPES, and 10 glucose (pH adjusted to 7.4 with NaOH). The micropipettes were filled with a solution containing (in mM): 130 K-gluconate, 9 KCl, 8 NaCl, 1 MgCl2, 10 EGTA, 10 HEPES, and 3 Na2ATP (pH adjusted to 7.3 with KOH).

A further data set concerns the target 3R Shaker K channel (Drosophila melanogaster, UniProt P08510, A359R/M356R). The data set is described as follows: physchem. The note with it: for compound-induced G(V) shift (mean±SEM) / G(V) shift: pH 7.4, Xenopus oocytes; for G(V) shift: Table 1; for relative current amplitude: representative traces at voltage giving 10% of maximum conductance in control; for ΔG(V) of representative G(V) curves (single examples): pH 7.4, same cells as representative traces. From the text: A 3R Shaker K channel is a modified Shaker K channel where residues 356 and 359 are mutated to arginines.
(§1) All animal experiments were approved by the local Animal Care and Use Committee and followed international guidelines. A modified Shaker H4 channel^30, with removed N-type inactivation (ShH4IR)^31, here called the wild type (WT) channel, was expressed in oocytes. In addition, a modified 3R Shaker K channel where two introduced positive charged arginines (M356R and A359R) in addition to one native arginine (R362) makes the channel more sensitive to DHA^16, was expressed in oocytes and in a CHO—K1 stable cell line.
(§2) African clawed frogs (Xenopus laevis) were anesthetized with 1.4 g/L ethyl 3-aminobenzoate methanesulfonate salt (tricaine). After an incision through the abdomen a batch of oocytes were removed. Clusters of oocytes were separated by incubation for ˜1 h in a Ca-free O—R2 solution (in mM: 82.5 NaCl, 2 KCl, 5 HEPES, and 1 MgCl2; pH adjusted to 7.4 by NaOH) containing Liberase Blendzyme. The oocytes were then incubated at 8° C. in a modified Barth's solution (MBS; in mM: 88 NaCl, 1 KCl, 2.4 NaHCO3, 15 HEPES, 0.33 Ca(NO3)2, 0.41 CaCl2, and 0.82 MgSO4; pH adjusted to 7.6 by NaOH) supplemented with penicillin (25 U/ml), streptomycin (25 μg/ml), and sodium pyruvate (2.5 mM) 2-24 hours before injection. Fifty nl of cRNA (50 pg) were injected into each oocyte using a Nanoject injector (Drummond Scientific, Broomall, Pa.). Injected oocytes were kept at 8° C. in MBS until one day before electrophysiological recordings, when they were incubated at 16° C. All chemicals were supplied from Sigma-Aldrich (Stockholm, Sweden) if not stated otherwise.
(§3) All manual electrophysiological recordings were performed at room temperature (20-23° C.), using a GeneClamp 500B amplifier (for oocytes) or a Axopatch 200B amplifier (for manual patch clamp of CHO—K1 cells and DRG neurons) and a Digidata 1440A digitizer and pClamp 10 software (all from Molecular Devices, Inc., Sunnyvale, Calif., USA). Compounds were dissolved to 100 mM in 99.5% EtOH and stored at −20° C. Compounds were diluted in extracellular solution to the desired test concentration.
(§4) The oocyte was placed in a bath surrounded by 1K extracellular solution that contained (in mM): 88 NaCl, 1 KCl, 15 HEPES, 0.4 CaCl2, and 0.8 MgCl2, pH adjusted to 7.4 by NaOH (reaching a sodium concentration of ˜100 mM). Control solution was added to the bath with a gravity driven perfusion system. Compound solution was added to the bath manually with a syringe. Two glass microelectrodes were inserted into the oocyte using micromanipulators. […] All channels were closed when the potential was clamped to −80 mV and this voltage was set as the holding potential. Currents were evoked from the holding potential of −80 mV by 100-ms long, 5-mV steps ranging from −80 up to +50 mV (WT) and +70 mV (3R).
(§5) Conductance GK(V) was calculated as GK(V)=[…], (Eq. 1) where IK is the average current from the steady-state phase at the end of each 100-ms pulse, V is the membrane voltage, and Vrev is the reversal potential for K^+, (set to −80 mV for the oocytes, and calculated to be −89 mV for the CHO—K1 cells).
(§6) G(V)=A/(1+exp((V1/2−V)/s))^n (Eq. 2) where A is amplitude of the curve, V is the absolute membrane voltage, V1/2 is the midpoint, s is the slope and n is an exponent set to 4^17. The compound-induced G(V) shift was determined at the 10% level of the maximum conductance in control solution^17. The compound-induced G(V) shift in CHO—K1 was quantified by subtracting the control V1/2 from the compound V1/2 when n was set to 1.
(§7) Data for concentration and pH dependent G(V) shifts (ΔV) in oocytes were fit with a dose-response equation ΔV=ΔVmax/(1+c1/2/c), (Eq. 3) where Δvmax is the maximal shift, c1/2 is half maximal effective concentration/pKa value and c is the concentration.

The target of another data set is WT Shaker K channel (Drosophila melanogaster, UniProt P08510, DEL6-46). Description: physchem. The note with it: 100 μM; for G(V) shift for WT: pH 7.4, Xenopus oocytes.
Text: A Shaker K channel is a Kv channel from the fruit fly Drosophila melanogaster. It is homologous to the human Kv1-type ion channels.
as §1, §2, §3, §4, §5, §6, §7

Sequence of 3R Shaker K channel (P08510 whole entry M356R/A359R): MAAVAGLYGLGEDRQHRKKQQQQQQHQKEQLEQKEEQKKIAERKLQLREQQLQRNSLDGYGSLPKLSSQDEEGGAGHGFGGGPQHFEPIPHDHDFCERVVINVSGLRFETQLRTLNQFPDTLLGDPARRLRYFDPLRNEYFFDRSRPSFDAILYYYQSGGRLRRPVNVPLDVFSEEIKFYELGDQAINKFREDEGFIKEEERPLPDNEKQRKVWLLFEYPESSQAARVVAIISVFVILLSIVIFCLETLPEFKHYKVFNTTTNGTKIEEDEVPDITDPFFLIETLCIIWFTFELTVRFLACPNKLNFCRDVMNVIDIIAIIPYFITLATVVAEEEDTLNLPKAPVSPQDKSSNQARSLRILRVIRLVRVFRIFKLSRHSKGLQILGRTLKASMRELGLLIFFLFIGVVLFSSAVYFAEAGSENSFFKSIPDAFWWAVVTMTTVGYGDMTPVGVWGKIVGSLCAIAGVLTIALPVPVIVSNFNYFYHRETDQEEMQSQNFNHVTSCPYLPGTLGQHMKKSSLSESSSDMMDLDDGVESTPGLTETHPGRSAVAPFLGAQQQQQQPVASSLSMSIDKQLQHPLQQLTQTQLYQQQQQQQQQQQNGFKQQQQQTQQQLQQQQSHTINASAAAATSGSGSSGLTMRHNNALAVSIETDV
Sequence of WT Shaker K channel (P08510 other isoform, or with tags, fused parts or gaps DEL6-46): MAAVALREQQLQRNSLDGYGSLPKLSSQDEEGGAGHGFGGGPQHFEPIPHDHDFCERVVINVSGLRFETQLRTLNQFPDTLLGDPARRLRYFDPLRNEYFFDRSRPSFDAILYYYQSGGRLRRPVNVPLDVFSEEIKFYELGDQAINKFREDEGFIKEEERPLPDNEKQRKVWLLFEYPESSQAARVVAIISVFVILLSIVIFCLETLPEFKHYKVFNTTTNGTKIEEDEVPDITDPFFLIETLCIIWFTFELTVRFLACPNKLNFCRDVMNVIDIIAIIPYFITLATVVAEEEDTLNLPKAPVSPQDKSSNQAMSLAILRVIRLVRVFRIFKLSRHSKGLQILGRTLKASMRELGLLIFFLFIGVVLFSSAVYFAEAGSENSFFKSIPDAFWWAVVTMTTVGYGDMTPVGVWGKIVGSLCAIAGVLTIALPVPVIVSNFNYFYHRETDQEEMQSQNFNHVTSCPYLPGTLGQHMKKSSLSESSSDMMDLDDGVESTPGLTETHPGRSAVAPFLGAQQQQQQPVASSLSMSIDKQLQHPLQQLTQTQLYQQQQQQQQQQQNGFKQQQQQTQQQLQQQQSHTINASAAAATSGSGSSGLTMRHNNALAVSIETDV

As to `C=CCO/N=C1\CC2[C@](C)(C(=O)O)CCC[C@]2(C)c2ccc(C(C)C)cc21` (some centres unmarked) [Compound K8], the “Effects on HL-1 cells Mean (membrane potential)” value with HL-1 cells is reported as −3.6 mV. Besides, at 3R Shaker K channel (100 μM), the “compound-induced G(V) shift (mean±SEM)” value is listed as −17.8±1.9 mV and the “G(V) shift” value is on record as −17.8 mV. Moreover, at 3R Shaker K channel (C7-modified DHAA, 100 μM, pH 7.4), the “effect on G(V) shift / current compared with DHAA” value is “significantly increased the effect”. The “Effects on K channel Mean ± SEM” value on 3R Shaker K channel (Table 2, K channel expressed in Xenopus oocytes) was −17.8 ± 1.9 mV. The relative current amplitude at 3R Shaker K channel (100 μM, pH 7.4) amounted to 7.6 times.
As a reminder, the pKa is the pH at which an ionisable group is half protonated. Broadly, the Kd is the constant that tells how readily two partners part at equilibrium. Read a low Kd as a tighter complex. Turning to `CC(C)c1ccc2c(c1)CC[C@H]1[C@](C)(C(=O)O)CCC[C@]21C` [DHAA, dehydroabietic acid], the pKa on WT Shaker K channel (Drosophila melanogaster, from pH dependence of G(V) shift) is 7.2; at 3R Shaker K channel (Drosophila melanogaster, from pH dependence of G(V) shift, 100 μM), 7.3. This compound came in with a Kd on 3R Shaker K channel of 89 µM.
Consider `CC/C=C\C/C=C\C/C=C\C/C=C\C/C=C\C/C=C\CCC(=O)O` [DHA], for which the “G(V) shift for WT” value at WT Shaker K channel is reported as −6.0 mV.
As to `C=C[C@@]1(C)CC[C@H]2C(=CC[C@@H]3[C@]2(C)CCC[C@@]3(C)C(=O)O)C1` [Iso-PiMA, isopimaric acid, reference compound], at WT Shaker K channel, the “G(V) shift for WT” value is “much smaller effects on WT compared to the 3R Shaker K channel”. Moreover, on 3R Shaker K channel (100 μM), the “compound-induced G(V) shift (mean±SEM)” value is −15.9±1.8 mV and the “ΔG(V) of representative G(V) curves (single examples)” value (“ΔG(V) of representative G(V) curves” below) is listed as −20.0 mV. For the same compound, the relative current amplitude on 3R Shaker K channel (100 μM, pH 7.4) is 5.7 times.
In the case of `C=C[C@@]1(C)C=C2CC[C@@H]3[C@](C)(CCC[C@@]3(C)C(=O)O)[C@H]2CC1` [PiMA, pimaric acid, reference compound], the “G(V) shift for WT” value at WT Shaker K channel is recorded as “much smaller effects on WT compared to the 3R Shaker K channel”. In addition, on 3R Shaker K channel (100 μM), the “compound-induced G(V) shift (mean±SEM)” value is recorded as −10.4±0.8 mV and the “ΔG(V) of representative G(V) curves” value is listed as −10.8 mV. Also, the relative current amplitude at 3R Shaker K channel (100 μM, pH 7.4) is given as 2.4 times.
Regarding `C[C@]1(C(=O)O)CCC[C@]2(C)c3cc(O)ccc3CC[C@@H]12` [PoCA, podocarpic acid, reference compound], the “G(V) shift for WT” value at WT Shaker K channel was “not significantly different from the 3R Shaker K channel”. The “ΔG(V) of representative G(V) curves” value at 3R Shaker K channel (100 μM) was “+0.1 mV”. In addition, on 3R Shaker K channel (100 μM, pH 7.4), the relative current amplitude stood at 1.0 times.
As to `C[C@@]1(C(=O)O)CCC[C@]2(C)c3ccc(Cl)c(Cl)c3CCC12` (stereo partly drawn) [Wu115, (1R,4aS)-7,8-dichloro-1,4a-dimethyl-1,2,3,4,4a,9,10,10a-octahydrophenanthrene-1-carboxylic acid], the “G(V) shift” value at 3R Shaker K channel (100 μM) is recorded as −24.2 mV.
In the case of `CC(C)c1cc2c(cc1F)[C@@]1(C)CCC[C@@](C)(C(=O)O)[C@@H]1CC2=O` [Wu116], the “G(V) shift” value at 3R Shaker K channel (100 μM) is recorded as −4.4 mV.
Take `C=Cc1cc2c(cc1C(C)C)C(=O)C[C@H]1[C@](C)(C(=O)O)CCC[C@]21C` [Wu118]: the “G(V) shift” value at 3R Shaker K channel (100 μM) turned out to be 0.2 mV.
Consider `C=Cc1cc2c(cc1C(C)C)/C(=N/OC)CC1[C@](C)(C(=O)O)CCC[C@]21C` (stereo partly drawn) [Wu119, (1R,4aS,E)-7-isopropyl-9-(methoxyimino)-1,4a-dimethyl-6-vinyl-1,2,3,4,4a,9,10,10a-octahydrophenanthrene-1-carboxylic acid], for which the “G(V) shift” value at 3R Shaker K channel (100 μM) is reported as −30.3 mV.
Consider `C=CCO/N=C1\CC2[C@](C)(C(=O)O)CCC[C@]2(C)c2cc(C=C)c(C(C)C)cc21` (stereo partly drawn) [Wu120, (1R,4aS,E)-9-((allyloxy)imino)-7-isopropyl-1,4a-dimethyl-6-vinyl-1,2,3,4,4a,9,10,10a-octahydrophenanthrene-1-carboxylic acid], for which the “G(V) shift” value at 3R Shaker K channel (100 μM) is −26.1 mV.
As to `CC(C)c1cc2c(cc1C1CC1)[C@@]1(C)CCC[C@@](C)(C(=O)O)C1CC2=O` (stereo partly drawn) [Wu121, (1R,4aS)-6-cyclopropyl-7-isopropyl-1,4a-dimethyl-9-oxo-1,2,3,4,4a,9,10,10a-octahydrophenanthrene-1-carboxylic acid], the “G(V) shift” value at 3R Shaker K channel (100 μM) is listed as −6.7 mV.
As to `CO/N=C1\CC2[C@](C)(C(=O)O)CCC[C@]2(C)c2cc(C3CC3)c(C(C)C)cc21` (stereo partly drawn) [Wu122, (1R,4aS,E)-6-cyclopropyl-7-isopropyl-9-(methoxyimino)-1,4a-dimethyl-1,2,3,4,4a,9,10,10a-octahydrophenanthrene-1-carboxylic acid], the “G(V) shift” value at 3R Shaker K channel (100 μM) was −32.3 mV.
For the compound `C=CCO/N=C1\CC2[C@](C)(C(=O)O)CCC[C@]2(C)c2cc(C3CC3)c(C(C)C)cc21` (stereo partly drawn) [Wu123, (1R,4aS,E)-9-((allyloxy)imino)-6-cyclopropyl-7-isopropyl-1,4a-dimethyl-1,2,3,4,4a,9,10,10a-octahydrophenanthrene-1-carboxylic acid], the “G(V) shift” value on 3R Shaker K channel (100 μM) is −26.3 mV.
On to `CC(C)c1ccc2c(c1-c1ccccc1)CC[C@H]1[C@](C)(C(=O)O)CCC[C@]21C` [Wu124], for which the “G(V) shift” value on 3R Shaker K channel (100 μM) is given as −0.4 mV.
`CC(C)c1ccc2c(c1C1CC1)CC[C@H]1[C@](C)(C(=O)O)CCC[C@]21C` [Wu127]: the “G(V) shift” value at 3R Shaker K channel (100 μM) was −9.6 mV.
On to `C[C@]1(C(=O)O)CCC[C@]2(C)c3ccccc3CCC12` (stereo partly drawn) [Wu129, (1S,4aS)-1,4a-dimethyl-1,2,3,4,4a,9,10,10a-octahydrophenanthrene-1-carboxylic acid], for which, at 3R Shaker K channel (100 μM), the “G(V) shift” value is given as −5.1 mV.
On to `C[C@@]1(C(=O)O)CCC[C@]2(C)c3c(Cl)c(Cl)c(Cl)c(Cl)c3CCC12` (stereo partly drawn) [Wu133, (1R,4aS)-5,6,7,8-tetrachloro-1,4a-dimethyl-1,2,3,4,4a,9,10,10a-octahydrophenanthrene-1-carboxylic acid], for which the “G(V) shift” value at 3R Shaker K channel (100 μM) is −25.6 mV.
On the same count and under the same terms, with `C[C@]1(C(=O)O)CCC[C@]2(C)c3cc(Cl)ccc3CCC12` (stereo partly drawn) [Wu135, (1S,4aS)-6-chloro-1,4a-dimethyl-1,2,3,4,4a,9,10,10a-octahydrophenanthrene-1-carboxylic acid] the figure was −12.0 mV; with `C[C@]1(C(=O)O)CCC[C@]2(C)c3ccc(Cl)cc3CCC12` (stereo partly drawn) [Wu136, (1S,4aS)-7-chloro-1,4a-dimethyl-1,2,3,4,4a,9,10,10a-octahydrophenanthrene-1-carboxylic acid], −17.8 mV.

(Values after patent US20180193294A1, “Dehydroabietic acid (DHAA) derivatives for use as ion channel openers” (priority 2015, published 2018).)
